Source: patent US10066025B2, “Compositions and methods for detecting, treating and preventing diseases and disorders” (YALE UNIVERSITY, priority 2012, dated 2018)

System: HK-2 cells
Assay: HK-2 cell necrosis induced with 2 mM H2O2 (LDH release)
Format: cell-based, human
Conditions: at 2 and 4 hrs
Method: HK2 cells (human proximal tubular line) obtained from ATTC (Manassas, Va., USA) were cultured in DMEM/F12 supplemented with glutamine, 10% FBS and antibiotics, and were maintained at 37° C. in 5% CO2. Cells were exposed to cisplatin (20 μM) in the presence or absence of renalase for 24 hrs, and cell viability was assessed by the WST1 method (Roche Applied Science, Germany). Cells were then harvested in RIPA buffer (20 mM Tris-HCl pH 7.5, 150 mM NaCl, 1 mM Na2EDTA, 1 mM EGTA, 1% NP-40, 1% sodium deoxycholate, 2.5 mM sodium pyrophosphate, 1 mM β-glycerophosphate, 1 mM Na3VO4, 1 μg/ml leupeptin) supplemented with a protease and phosphatase inhibitor cocktail (Roche Applied Science, Germany). Proteins were separated by SDS-PAGE and Western blotting was carried out using the following antibodies: anti-renalase monoclonal (Desir et al., 2012, J Am Heart Assoc. 1:e002634; (Lee et al., 2013, J Am Soc Nephrol 24:445-455); anti caspase 3 (Cell Signaling Technology, MA, USA) and anti Bcl2 (Thermo Scientific, USA). Necrotic injury in HK-2 cells (ATCC, Manassas, Va.) was induced with exposure to 2 mM H2O2 for 2-8 hr and lactate dehydrogenase (LDH) released into cell culture media was measured as described using a commercial LDH assay kit (Promega, Madison, Wis.) (Lee and Emala, 2002, American journal of physiology. Renal physiology 282:F844-852).

How did the “necrosis induced with 2 mM H2O2” value turn out when “RP H220: histidine tagged RP-220, SEQ ID NO: 4, HHHHHHCIRFVSIDNKKRNIESSEIG (listed as Homo sapiens)” was run?
The value was “significantly reduced necrosis”.
